Experimental data published in patent US6706748B2 (priority 2000, dated 2004).

COC(=O)C(C#N)C(=O)c1snc(Cl)c1Cl (centres unmarked) [Ie-1, methyl 2-cyano-3-(3,4-dichloro-5-isothiazolyl)-3-oxopropanoate]
melting point: 119 to 122 °C

O=C(CC(=O)c1snc(Cl)c1Cl)c1ccc(O)cc1 [Ic-148, 1-(3,4-dichloro-5-isothiazolyl)-3-(4-hydroxyphenyl)-1,3-propanedione]
melting point: 224 to 227 °C

CCOCOc1ccc(C(=O)CC(=O)c2snc(Cl)c2Cl)cc1 [Ic-145, 1-(3,4-dichloro-5-isothiazolyl)-3-(4-ethoxymethoxyphenyl)-1,3-propanedione]
melting point: 174 °C

COc1ccc(S(=O)(=O)N(C(=O)c2snc(Cl)c2Cl)c2ccc(Cl)cc2)cc1 [Ia-68, N-(3,4-dichloro-5-isothiazolecarbonyl)-N-(4-chlorophenyl)-4-methoxybenzenesulfonamide]
melting point: 154 to 158 °C

COc1ccc(C(=O)CC(=O)c2snc(Cl)c2Cl)cc1
melting point: 138 to 139 °C
